Results: patent US6750244B2, “Compounds active at a novel site on receptor-operated calcium channels useful for treatment of neurological disorders and diseases” (NPS Pharmaceuticals, Inc., priority 1993, dated 2004)
Several values for one entry are separate records, joined by “and”; a condition that tells them apart may be missing. Equal entries are not always repeated. Structures can show the parent of a compound that is named as a salt. Where two headings read alike, the source gives them in different places. Marks after values point to notes of the source that are not given here.

Experiments:
NMDA receptor = assay: Inhibition of NMDA/glycine-induced increases in intracellular calcium in cultured rat cerebellar granule cells (RCGC); type: cell-based
[1] = target: NMDA receptor-ionophore complex (site labeled by [3H]MK-801); assay: Inhibition of [3H]MK-801 binding in rat cortical/hippocampal washed membrane preparations; conditions: for IC50: read-out: IC50 (μM) vs. [3H]MK-801, rat cortical/hippocampal washed membranes
[2] = NMDA/glycine-induced increases in intracellular calcium, cultured rat cerebellar granule cells; read-out: IC50 (μM) vs. NMDA

IC50 (NMDA receptor; [2]) | IC50 [1] [µM] | Compound | also measured
– | 57 | CNCCC(c1cccc(F)c1)c1ccc(OC)c(F)c1 (racemic) [Compound 174, (R,S)-N-Methyl-3-(3-fluoro-4-methoxy)-3-(3-fluorophenyl)propyl amine maleate] | –
– | 10 | CNCCC(c1cccc(F)c1)c1ccc(O)c(F)c1 (racemic) [Compound 176, (R,S)-N-Methyl-3-(3-fluoro-4-hydroxy)-3-(3-fluorophenyl)propyl amine hydrochloride] | –
– | 0.754 | Cc1ccccc1OC(CCN)c1ccccc1 (centres unmarked) [Compound 177] | –
– | 1.25 | COc1ccccc1OC(CCN)c1ccccc1 (centres unmarked) [Compound 178] | –
– | 0.371 | NCCC1c2cc(F)ccc2CCc2c(F)cccc21 (centres unmarked) [Compound 194] | –
– | 0.029 | NCCC1c2cc(F)ccc2CCc2ccc(F)cc21 [Compound 195, 3,7-Difluoro-10,11-dihydro-5-(2-aminoethyl)-5H-dibenzo[a,d]cycloheptene hydrochloride] | –
– | 2.24 | NCCC1c2ccccc2CCc2c(F)cccc21 (centres unmarked) [Compound 196] | –
– | 0.053 | NCCC1c2ccccc2CCc2ccc(F)cc21 (centres unmarked) [Compound 197, 3-Fluoro-10,11-dihydro-5-(2-aminoethyl)-5H-dibenzo[a,d]cycloheptene hydrochloride] | –
– | 14.5 | CN(C)CCC=C1c2ccccc2C=Cc2ccccc21 [Cyclobenzaprine, reference compound] | –
28.8 µM | – | CN(C)CCC(Oc1ccc2c(c1)CCCC2)c1ccc(C#N)cc1 (centres unmarked) [Novo-Nordisk compound^d, reference compound] | –
138 µM | – | CN(C)CCC(c1ccc(Br)cc1)c1ccccn1 (centres unmarked) [brompheniramine, reference compound] | –
~10 µM | – | CN1CCN(C(c2ccccc2)c2ccc(Cl)cc2)CC1 (centres unmarked) [chlorcyclizine, reference compound] | –
76 µM | – | CN(C)CCN(Cc1ccc(Cl)cc1)c1ccccn1 [chloropyramine, reference compound] | –
> 100 µM | – | CN(C)CCC(c1ccc(Cl)cc1)c1ccccn1 (centres unmarked) [chlorpheniramine, reference compound] | –
28 µM | – | CN1CCN(C(c2ccccc2)c2ccccc2)CC1 [cyclizine, reference compound] | –
> 100 µM | – | CC(C)N(CCC(C(N)=O)(c1ccccc1)c1ccccn1)C(C)C (centres unmarked) [disopyramide, reference compound] | –
62 µM | – | CN(C)CCOC(C)(c1ccccc1)c1ccccn1 (centres unmarked) [doxylamine, reference compound] | –
87 µM | – | CC(C)[N+](C)(CCC(C(N)=O)(c1ccccc1)c1ccccc1)C(C)C [isopropamide, reference compound] | –
> 30 µM | – | Cc1cccc(C)c1NC(=O)CN1CCN(CCCC(c2ccc(F)cc2)c2ccc(F)cc2)CC1 [lidoflazine, reference compound] | –
22 µM | – | CN(C)CCC(c1ccccc1)c1ccccn1 (centres unmarked) [pheniramine, reference compound] | –
> 10 µM | – | O=c1[nH]c2ccccc2n1C1CCN(CCCC(c2ccc(F)cc2)c2ccc(F)cc2)CC1 [pimozide, reference compound] | –
10.7 µM | – | OC(CCN1CCCCC1)(c1ccccc1)c1ccccc1 [pridinol, reference compound] | –
5.13 µM | – | OC(CCN1CCCCC1)(c1ccccc1)C1CCCCC1 (centres unmarked) [trihexyphenidyl, reference compound] | –
≥ 26 µM | – | CN(C)C/C=C(/c1ccc(Br)cc1)c1cccnc1 [zimeldine, reference compound] | –

The remaining lines, values behind:

Compound | IC50 (NMDA receptor; [2]) | IC50 [1] [µM] | also measured
NCC=C(c1ccccc1)c1cccc(F)c1 (racemic) [Compound 107, 3-(3-fluorophenyl)-3-phenyl-prop-2-ene-1-amine] | 2.67 µM | 3.83 | –
CCC(NCCC(c1ccccc1)c1ccccc1)c1ccccc1OC (racemic) [Compound 167, (R,S)-N-1-(2-methoxyphenylpropyl)-3,3-diphenylpropylamine] | 0.08 µM | 14.5 | –
COc1ccc(C(CCN)c2cccc(F)c2)cc1F (racemic) [Compound 173, (R,S)-3-(3-Fluoro-4-methoxy)-3-(3-fluorophenyl)propylamine maleate] | 22.9 µM | 24.1 | –
NCC[C@H](c1cccc(F)c1)c1ccc(O)c(F)c1 (racemic) [Compound 175, (R,S)-3-(3-Fluoro-4-hydroxy)-3-(3-fluorophenyl)propylamine maleate] | – | 5.1 | –
NCC(c1ccccc1)c1ccccc1 [2,2-diphenylethylamine, reference compound] | 24.5 µM | – | –
C[C@@H](NCCC(c1ccccc1)c1ccccc1)c1ccccc1 [(R)-fendiline, reference compound] | 0.719 µM | – | –
C[C@H](NCCC(c1ccccc1)c1ccccc1)c1ccccc1 [(S)-fendiline, reference compound] | 0.686 µM | – | –
CN(C)CCC=C1c2ccccc2CCc2ccccc21 [Amitriptyline, reference compound] | – | 14.2 | –
COc1ccc(C(CC(C)N)c2ccccc2)cc1 (centres unmarked) [Astra compound, reference compound] | > 30 µM | – | –
CN(C)CCCN1c2ccccc2Sc2ccc(Cl)cc21 [Chlorpromazine, reference compound] | – | 11.2 | –
COc1ccccc1CC(=O)NC(CC(N)=O)C(=O)NCCCCCNCCCNCCCNC(=O)C(N)CCCNC(=N)N (centres unmarked) [Compound 5] | 0.102 µM | 15.2 | IC50 (NMDA receptor; TFA salt; read-out: IC50 (μM) vs. NMDA): 0.07 µM
COc1ccccc1CC(=O)NC(Cc1ccccc1)C(=O)NCCCCCNCCCNCCCNC(=O)C(N)CCCNC(=N)N (centres unmarked) [Compound 6] | 0.129 µM | > 100 | % inhibition of [3H]MK-801 binding at the stated concentration (IC50 study incomplete) ([1]; at 100 μM): (0% at 100 μM)^d
COc1ccccc1CC(=O)NC(CC(C)C)C(=O)NCCCCCNCCCNCCCNC(=O)C(N)CCCNC(=N)N (centres unmarked) [Compound 7] | 0.163 µM | 129 | –
COc1ccccc1CC(=O)NC(CC(N)=O)C(=O)NCCCCCNCCCNCCCNC(=O)C(N)CCCCN (centres unmarked) [Compound 8] | 0.099 µM | 219 | –
N=C(N)NCCCC(N)C(=O)NCCCNCCCNCCCCCNC(=O)C(CC(N)=O)NC(=O)Cc1ccccc1O (centres unmarked) [Compound 10] | 0.082 µM | – | % inhibition of [3H]MK-801 binding at the stated concentration (IC50 study incomplete) ([1]; at 80 μM): (57% at 80 μM)^d
NCCCOCCCCOCCCNC(=O)Cc1cc(Br)ccc1O [Compound 15] | 4.9 µM | – | –
NCCCOCCCCOCCCNC(=O)Cc1c[nH]c2ccc(Br)cc12 [Compound 16] | 5.1 µM | 28.8 | –
NCCCOCCCCOCCCNC(=O)Cc1ccc2ccccc2c1 [Compound 17] | 9.6 µM | 36.3 | –
COc1ccccc1CC(=O)NCCCOCCCCOCCCN [Compound 18] | 5.1 µM | 34 | –
CCC(N)CC(c1cccc(F)c1)c1cccc(F)c1 (centres unmarked) [Compound 23, 3,3-bis(3-fluorophenyl)-1-ethyl-1-propylamine] | 0.267 µM | 5.4 | –
COc1ccc(C(CCN)c2cccc(F)c2)cc1 (centres unmarked) [Compound 26, 3-(3-fluorophenyl)-3-(4-methoxyphenyl)-1-propylamine] | 27 µM | 34 | –
Cc1ccccc1C(CCN)c1cccc(F)c1 (centres unmarked) [Compound 27, 3-(3-fluorophenyl)-3-(2-methylphenyl)-1-propylamine] | 0.071 µM | 0.18 | –

Compound | IC50 (NMDA receptor; [2]) | IC50 [1] [µM] | also measured
Cc1cccc(C(CCN)c2cccc(F)c2)c1 (centres unmarked) [Compound 28, 3-(3-fluorophenyl)-3-(3-methylphenyl)-1-propylamine] | 0.38 µM | 2.3 | –
Cc1ccc(C(CCN)c2cccc(F)c2)cc1 (centres unmarked) [Compound 29, 3-(3-fluorophenyl)-3-(4-methylphenyl)-1-propylamine] | 1.9 µM | 5.8 | –
NCCC(c1cccc(F)c1)c1cccc(Cl)c1 (centres unmarked) [Compound 30, 3-(3-fluorophenyl)-3-(3-chlorophenyl)-1-propylamine] | 0.035 µM | 0.407 | –
CCNCCC(c1ccccc1)c1ccccc1 [Compound 68, N-ethyl-3,3-diphenylpropylamine] | 2.9 µM | – | –
NCCCC(c1ccccc1)c1ccccc1 [Compound 70, 4,4-diphenylbutylamine] | 1.7 µM | – | –
NCCCCC(c1ccccc1)c1ccccc1 [Compound 71, 5,5-diphenylpentylamine] | 6.35 µM and 6.4 µM | – | –
CC(C)NCCC(c1ccccc1)c1ccccc1 [Compound 72, N-isopropyl-3,3-diphenylpropylamine] | 7.4 µM | – | –
CN(C)CCC(c1ccccc1)c1ccccc1 [Compound 73, N,N-dimethyl-3,3-diphenylpropylamine] | 12.6 µM | – | –
CCN(CC)CCC(c1ccccc1)c1ccccc1 [Compound 74, N,N-diethyl-3,3-diphenylpropylamine] | 27.5 µM | – | –
NCCC(c1ccccc1)C1CCCCC1 (centres unmarked) [Compound 75] | 0.94 µM | – | –
NCCC(c1ccc(F)cc1)c1ccccc1F (centres unmarked) [Compound 76, 3-(2-fluorophenyl)-3-(4-fluorophenyl)-1-propylamine] | 0.73 µM | – | –
NCCC(c1ccc(F)cc1)c1ccc(F)cc1 [Compound 77, 3,3-bis(4-fluorophenyl)-1-propylamine] | 5.5 µM | – | –
NCCC(c1cccc(C(F)(F)F)c1)c1cccc(C(F)(F)F)c1 [Compound 78, 3,3-bis[3-(trifluoromethyl)phenyl]-1-propylamine] | – | – | IC50 (NMDA receptor; read-out: IC50 (μM) vs. NMDA; NMDA/glycine-induced increases in intracellular calcium, cultured rat cerebellar granule cells): 10.2 µM
COc1cccc(C(=CCN)c2cccc(OC)c2)c1 [Compound 116, 3,3-bis(3-methoxyphenyl)-prop-2-ene-1-amine] | 3.6 µM and 4.47 µM | – | –
NCCc1ccccc1Cc1ccccc1F [Compound 129] | 1.26 µM | – | –
NCCc1ccccc1Cc1cccc(F)c1 [Compound 130] | 0.851 µM | – | –
NCCc1ccccc1Cc1ccc(F)cc1 [Compound 131] | 1.23 µM | – | –
COc1cccc(/C(=C\CN)c2cccc(Cl)c2)c1 [Compound 143] | 2.82 µM | – | –
NCCC1c2cccc(F)c2CCc2c(F)cccc21 [Compound 193] | – | – | activity vs. [3H]MK-801 binding ([1]; @ 1 μM): inactive @ 1 μM
CN(C)CCCN1c2ccccc2CCc2ccccc21 [Imipramine, reference compound] | – | 6.75 | –
CNCCCN1c2ccccc2CCc2ccccc21 [desipramine, reference compound] | – | 3.26 | –
